The record followed here is patent publication US7880007B2, “Bicyclic substituted phenyl piperidine modulators of muscarinic receptors” (Vertex Pharmaceuticals Incorporated, priority 2004, dated 2011).

Holding throughout (format): cell-based
For one experiment, the target named is T1, M4 muscarinic receptor (Homo sapiens, UniProt P08173).
T1 construct: expressed in transfected cells; host or cells: CHO (M4-CHO)
T1 sequence (P08173 1-479): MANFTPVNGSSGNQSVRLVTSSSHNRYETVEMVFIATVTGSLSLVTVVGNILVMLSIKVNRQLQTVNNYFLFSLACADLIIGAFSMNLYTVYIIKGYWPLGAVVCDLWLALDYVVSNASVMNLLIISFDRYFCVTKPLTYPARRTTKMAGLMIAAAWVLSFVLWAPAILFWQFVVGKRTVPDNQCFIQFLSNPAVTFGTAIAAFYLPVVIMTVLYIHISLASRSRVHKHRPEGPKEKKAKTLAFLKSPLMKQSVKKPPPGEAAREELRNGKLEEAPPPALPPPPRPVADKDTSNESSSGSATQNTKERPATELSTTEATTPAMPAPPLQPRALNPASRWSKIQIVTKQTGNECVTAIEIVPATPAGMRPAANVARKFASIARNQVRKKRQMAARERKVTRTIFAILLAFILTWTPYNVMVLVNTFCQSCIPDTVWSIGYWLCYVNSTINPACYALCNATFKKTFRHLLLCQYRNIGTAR
Kind of experiment: Functional mobilization of intracellular calcium (FLIPR), M4-CHO cells. Particulars: for Emax: 100% efficacy = maximum response obtained with the Carbachol control; for M4 Activity: M4-CHO cells, calcium mobilization (FLIPR). The method, then: (§1) Functional Mobilization of Intracellular Calcium to Determine Muscarinic Receptor Activity:
(§2) CHO cells expressing muscarinic receptors (M1 to M5) are grown as monolayers in tissue culture flasks at 37° C. in a humidified atmosphere containing 5% CO2 and passaged every 3-5 days. The growth media is Dulbecco's modified eagles medium (DMEM, Gibco Cat #12430-054), containing 25 mM Hepes and supplemented with Fetal Bovine Serum (Hyclone, cat #SH30071.03), 0.1 mM of MEM non-essential amino acids (GIBCO, Cat #11140-050), 1 mM MEM Sodium Pyruvate (GIBCO Cat #11360-070) and 100 units/ml of Penicillin G and 100 μg/ml of Streptomycin (GIBCO Cat #15140-122). The recombinant muscarinic receptor cell lines are grown under antibiotic pressure with media containing 25 μg/ml zeocin and 500 μg/ml G418 (M1-CHO), 4 μg/ml puromycin, 50 μg/ml zeocin and 2.5 μg/ml blasticidin (M2 and M4-CHO) or 50 μg/ml zeocin and 4 μg/ml puromycin (M3 and M5-CHO).
(§3) Cells are harvested at 80-90% confluence using Versene (GIBCO Cat #15040-066), collected by centrifugation and seeded 18-24 hrs prior to running the calcium assay at a density of 5,000-10,000 cells/well in […], clear-bottomed 384-well plates (BD Biocoat, poly-D-lysine, Cat #356663). The day of the experiment, the cells are washed with a plate washer (Bioteck Instruments, ELX 405) using bath 1 buffer (140-mM NaCl, 4.5-mM KCl, 2-mM CaCl2, 1-mM MgCl2, 10-mM Hepes-Na, 10-mM Glucose, pH 7.4, with NaOH) containing 1 mM Probenecid. Next, the calcium dye Fluo-3 (25 μl/well of Fluo-3 AM at 4 μM, Molecular Probes F-1241, in Bath 1 buffer containing 1 mM Probenecid) is added to the 25 μl of Bath 1 remaining in each well after the plate wash and the dye is loaded at 37° C. in the tissue culture incubator for 60-90 min. The fluorescent dye is removed using the plate washer with Bath 1 containing 1 mM Probenecid, leaving 25 μl/well of this solution after the wash. Alternatively, cells can be loaded with the calcium indicator from Molecular Devices (Calcium 3 Assay Reagents, Cat #R7181) adding 5 μl of a 5× solution dye in Bath 1 containing 1 mM Probenecid (10 ml per dye flask cat #R7182 to generate a solution 20×) to 20 μl of the same buffer. After loading for 60 min, the experiment can be run without having to remove the dye.
(§4) Compounds are prepared at a 2× fold concentration in a 96-well plate (round bottom, Costar Corning cat #3656), by reconstituting the pre-spotted compounds in bath 1 containing 1 mM probenecid. The final concentration DMSO is 0.5%, and the amount of DMSO is normalized across the assay plate. To determine an agonist action of the compounds on muscarinic receptors, the reconstituted compounds are added (25 μl compound/well) to the cell assay plate (containing 25 μl/well) using the multi-channel robotic system of the FLIPR 3 Instrument (Molecular Devices, Sunnyvale, Calif.). To determine a functional inhibitory action of the compounds on muscarinic receptors, the reconstituted compounds are added (25 μl compound/well) to the assay plate and pre-incubated for 15 min prior to adding 25 μl of Carbachol at 3× the EC80 for each muscarinic subtype. Alternatively, the compounds can be co-applied simultaneously with the agonist. In both assay modes, the fluorescence is recorded for 60 sec (excitation wavelength is […] and emission wavelength 540 nm) using the FLIPR 3 instrument.
(§5) The potency, efficacy and selectivity of the muscarinic compounds were evaluated by screening the compound activity across the whole family (M1 to M5 cells). Compounds were also screened for activity on other proteins such as other GPCRs and ion channels to determine selectivity on M4 receptors.
(§6) Examples of activities and efficacies of the muscarinic compounds of formulae (I, Ia, Ib, and II) on modulating M1, M2, M3 and M4 receptors are shown below in Table 3. […]

The target of another experiment is T2, M2 muscarinic receptor (Homo sapiens, UniProt P08172).
T2 construct: expressed in transfected cells; host or cells: CHO (M2-CHO)
T2 sequence (P08172 1-466): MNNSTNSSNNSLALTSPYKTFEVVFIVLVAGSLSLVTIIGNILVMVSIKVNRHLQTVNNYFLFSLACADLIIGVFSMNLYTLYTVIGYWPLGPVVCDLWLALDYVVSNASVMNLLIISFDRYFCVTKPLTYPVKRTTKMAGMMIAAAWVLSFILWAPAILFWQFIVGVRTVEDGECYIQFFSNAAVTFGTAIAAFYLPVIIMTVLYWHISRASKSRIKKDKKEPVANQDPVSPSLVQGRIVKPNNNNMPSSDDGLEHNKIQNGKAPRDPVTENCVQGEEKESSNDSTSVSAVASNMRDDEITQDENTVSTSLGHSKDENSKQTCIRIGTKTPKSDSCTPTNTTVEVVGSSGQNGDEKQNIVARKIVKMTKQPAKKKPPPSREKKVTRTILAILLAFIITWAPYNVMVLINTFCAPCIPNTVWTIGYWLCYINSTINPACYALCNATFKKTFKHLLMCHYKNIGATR
Kind of experiment: Functional mobilization of intracellular calcium (FLIPR), M2-CHO cells. Particulars: for Emax: 100% efficacy = maximum response obtained with the Carbachol control; for M2 Activity: M2-CHO cells, calcium mobilization (FLIPR). The protocol:
as §1, §2, §3, §4, §5, §6

A further experiment has as its target T3, M1 muscarinic receptor (Homo sapiens, UniProt P11229).
T3 construct: expressed in transfected cells; host or cells: CHO (M1-CHO)
T3 sequence (P11229 1-460): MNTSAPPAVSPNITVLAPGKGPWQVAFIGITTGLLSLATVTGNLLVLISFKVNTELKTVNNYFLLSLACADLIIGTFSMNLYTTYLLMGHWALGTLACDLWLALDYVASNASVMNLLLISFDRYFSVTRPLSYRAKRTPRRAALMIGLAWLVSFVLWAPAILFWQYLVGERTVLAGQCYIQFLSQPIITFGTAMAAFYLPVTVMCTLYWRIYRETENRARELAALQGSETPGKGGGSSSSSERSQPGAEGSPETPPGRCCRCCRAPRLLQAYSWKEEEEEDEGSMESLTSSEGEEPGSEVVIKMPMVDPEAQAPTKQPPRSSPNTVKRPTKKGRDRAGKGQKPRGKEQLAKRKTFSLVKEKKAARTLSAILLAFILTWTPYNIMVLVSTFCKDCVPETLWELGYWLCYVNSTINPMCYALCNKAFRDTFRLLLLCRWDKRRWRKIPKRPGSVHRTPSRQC
Kind of experiment: Functional mobilization of intracellular calcium (FLIPR), M1-CHO cells. Particulars: for Emax: 100% efficacy = maximum response obtained with the Carbachol control; for M1 Activity: M1-CHO cells, calcium mobilization (FLIPR). The protocol:
as §1, §2, §3, §4, §5, §6

For the compound `CCOC(=O)N1C2CCC1CC(CN1CCC(c3ccccc3OC)CC1)C2` (stereo not drawn) [Compound 20], at M4 muscarinic receptor, the Emax was 25 to 100% and the “M4 Activity” value was “+++ (activity was measured to be less than 1.0 μM)”. On M2 muscarinic receptor, the Emax was below 25% and the “M2 Activity” value is recorded as “+ (activity was measured to be greater than 5.0 μM)”. Moreover, at M1 muscarinic receptor, the Emax was in the range of 25 to 100% and the “M1 Activity” value is recorded as “+++ (activity was measured to be less than 1.0 μM)”.
Regarding `COc1ccccc1C1CCN(CC2CC3CCC(C3)C2)CC1` (stereo not drawn) [Compound 28], on M4 muscarinic receptor, the Emax was below 25% and the “M4 Activity” value is recorded as “+ (activity was measured to be greater than 5.0 μM)”. Also, at M2 muscarinic receptor, the Emax was below 25% and the “M2 Activity” value is “+ (activity was measured to be greater than 5.0 μM)”. On M1 muscarinic receptor, the Emax is below 25% and the “M1 Activity” value is reported as “+ (activity was measured to be greater than 5.0 μM)”.
Consider `CCOC(=O)N1CCC(N2CCC(OC)(c3cc(Cl)ccc3OC)CC2)CC1` [Compound 55], for which, on M4 muscarinic receptor, the Emax lay within 25 to 100% and the “M4 Activity” value is given as “+++ (activity was measured to be less than 1.0 μM)”. At M2 muscarinic receptor, the Emax was below 25% and the “M2 Activity” value is on record as “+ (activity was measured to be greater than 5.0 μM)”. Moreover, on M1 muscarinic receptor, the Emax is 25 to 100% and the “M1 Activity” value was “+++ (activity was measured to be less than 1.0 μM)”.
For the compound `COc1ccccc1C1CCN(CC2CCC3CCC2C3)CC1` (stereo not drawn) [Compound 61], at M4 muscarinic receptor, the Emax lay within 25 to 100% and the “M4 Activity” value is given as “++ (activity was measured to be from 1.0 μM to 5.0 μM)”. In addition, at M2 muscarinic receptor, the Emax was below 25% and the “M2 Activity” value is listed as “+ (activity was measured to be greater than 5.0 μM)”. Further, on M1 muscarinic receptor, the Emax is below 25% and the “M1 Activity” value is on record as “+ (activity was measured to be greater than 5.0 μM)”.
`COc1ccc(Cl)cc1C1(O)CCN(C2CC3CCC2C3)CC1` (stereo not drawn) [Compound 63]: at M4 muscarinic receptor, the Emax is 25 to 100% and the “M4 Activity” value is given as “+ (activity was measured to be greater than 5.0 μM)”. Besides, at M2 muscarinic receptor, the Emax was below 25% and the “M2 Activity” value is reported as “+ (activity was measured to be greater than 5.0 μM)”. At M1 muscarinic receptor, the Emax was below 25% and the “M1 Activity” value is “+ (activity was measured to be greater than 5.0 μM)”.
As for `COc1ccc(NC(C)=O)cc1C1CCN(C2C[C@H]3CC[C@H](C2)C3)CC1` (stereo partly drawn) [Compound 75], at M4 muscarinic receptor, the Emax lay within 25 to 100% and the “M4 Activity” value was “++ (activity was measured to be from 1.0 μM to 5.0 μM)”. Further, at M2 muscarinic receptor, the Emax was below 25% and the “M2 Activity” value is on record as “+ (activity was measured to be greater than 5.0 μM)”. On M1 muscarinic receptor, the Emax is below 25% and the “M1 Activity” value is on record as “+ (activity was measured to be greater than 5.0 μM)”.
As to `COc1ccc(Cl)cc1C1(OC)CCN(C2CCC3CCC2C3)CC1` (stereo not drawn) [Compound 80], at M4 muscarinic receptor, the Emax lay in the range of 25 to 100% and the “M4 Activity” value was “+++ (activity was measured to be less than 1.0 μM)”. In addition, on M2 muscarinic receptor, the Emax was below 25% and the “M2 Activity” value is given as “++ (activity was measured to be from 1.0 μM to 5.0 μM)”. Further, on M1 muscarinic receptor, the Emax lay in the range of 25 to 100% and the “M1 Activity” value is “++ (activity was measured to be from 1.0 μM to 5.0 μM)”.
Take `Cc1ccc(F)cc1C1CCN([C@H]2CC[C@H]3CC[C@H]2C3)CC1` [Compound 81]: at M4 muscarinic receptor, the maximum response (Emax) was 25 to 100% and the “M4 Activity” value is recorded as “++ (activity was measured to be from 1.0 μM to 5.0 μM)”. In addition, at M2 muscarinic receptor, the Emax was 25 to 100% and the “M2 Activity” value is “+ (activity was measured to be greater than 5.0 μM)”. For the same compound, at M1 muscarinic receptor, the Emax was 25 to 100% and the “M1 Activity” value was “+ (activity was measured to be greater than 5.0 μM)”.
As to `COc1ccc(Cl)cc1C1CCN(CC2CCCCC2)CC1` [Compound 91], at M4 muscarinic receptor, the Emax lay within 25 to 100% and the “M4 Activity” value is on record as “++ (activity was measured to be from 1.0 μM to 5.0 μM)”. For the same compound, at M2 muscarinic receptor, the Emax was below 25% and the “M2 Activity” value is recorded as “+ (activity was measured to be greater than 5.0 μM)”. For the same compound, on M1 muscarinic receptor, the Emax is below 25% and the “M1 Activity” value is “++ (activity was measured to be from 1.0 μM to 5.0 μM)”.
`CCOC(=O)N1C2CCC1CC(N1CCC(O)(c3cc(F)ccc3C)CC1)C2` (stereo not drawn) [Compound 95]: on M4 muscarinic receptor, the maximal response (Emax) lay in the range of 25 to 100% and the “M4 Activity” value was “+++ (activity was measured to be less than 1.0 μM)”. At M2 muscarinic receptor, the Emax was below 25% and the “M2 Activity” value is reported as “+ (activity was measured to be greater than 5.0 μM)”. Further, on M1 muscarinic receptor, the maximal response (Emax) was 25 to 100% and the “M1 Activity” value is “+++ (activity was measured to be less than 1.0 μM)”.
As to `Cc1ccc(Cl)cc1C1CCN(C2CC[C@H]3CC[C@H]2C3)CC1` (stereo partly drawn) [Compound 96], on M4 muscarinic receptor, the Emax was in the range of 25 to 100% and the “M4 Activity” value is on record as “+++ (activity was measured to be less than 1.0 μM)”. On M2 muscarinic receptor, the Emax was in the range of 25 to 100% and the “M2 Activity” value is listed as “++ (activity was measured to be from 1.0 μM to 5.0 μM)”. For the same compound, at M1 muscarinic receptor, the Emax lay in the range of 25 to 100% and the “M1 Activity” value is “+++ (activity was measured to be less than 1.0 μM)”.
